Data reported in US9573956B2, “Compounds as dual inhibitors of phosphodiesterases and histone deacetylases” (FUNDACIÓN PARA LA INVESTIGACIÓN MÉDICA APLICADA, priority 2013, dated 2017).

Key:
[1] = molecular target: T1, HDAC2 (Homo sapiens, UniProt Q92769); assay: HDAC enzyme activity assay (fluorogenic substrate), HDAC2; format: biochemical; settings: recombinant enzyme; read-out: HDAC2 inhibition (IC50)
T1 construct: NM_001527; Cat. #50002) is full-length with C-terminal his tag; His (C); purchased BPS Biosciences 50002; host or cells: baculovirus infected Sf9 cells

[2] = molecular target: HDAC1 (Homo sapiens, UniProt Q13547); assay: HDAC enzyme activity assay (fluorogenic substrate), HDAC1; format: biochemical; settings: recombinant enzyme; read-out: HDAC1 inhibition (IC50)
[3] = molecular target: T2, PDE5A (Homo sapiens, UniProt O76074); assay: PDE enzyme activity assay (HTRF cGMP), PDE5A; format: biochemical; settings: recombinant enzyme; read-out: PDE5A1 inhibition (IC50)
T2 construct: they are full-length with N-terminal GST tag; GST (N); purchased BPS Biosciences 60050; host or cells: baculovirus infected Sf9 cells

[4] = molecular target: T3, PDE9A isoform b (Homo sapiens, UniProt O76083); assay: PDE enzyme activity assay (HTRF cGMP), PDE9A; format: biochemical; settings: recombinant enzyme; read-out: PDE9A inhibition (IC50)
T3 construct: they are full-length with N-terminal GST tag; GST (N); purchased BPS Biosciences 60090; host or cells: baculovirus infected Sf9 cells

[5] = molecular target: T4, HDAC3 (Homo sapiens, UniProt O15379); assay: HDAC enzyme activity assay (fluorogenic substrate), HDAC3; format: biochemical; settings: recombinant enzyme; read-out: HDAC3 inhibition (IC50)
T4 construct: is full-length with C-terminal his tag and human NCOR2, N-terminal GST tag; His (C); purchased BPS Biosciences 50003; host or cells: baculovirus infected Sf9 cells

[6] = molecular target: T5, HDAC6 (Homo sapiens, UniProt Q9UBN7); assay: HDAC enzyme activity assay (fluorogenic substrate), HDAC6; format: biochemical; settings: recombinant enzyme; read-out: HDAC6 inhibition (IC50)
T5 construct: BC069243; Cat. #50006) is full-length with N-terminal GST tag; GST (N); purchased BPS Biosciences 50006; host or cells: baculovirus infected Sf9 cells
T5 sequence (Q9UBN7 1-1215): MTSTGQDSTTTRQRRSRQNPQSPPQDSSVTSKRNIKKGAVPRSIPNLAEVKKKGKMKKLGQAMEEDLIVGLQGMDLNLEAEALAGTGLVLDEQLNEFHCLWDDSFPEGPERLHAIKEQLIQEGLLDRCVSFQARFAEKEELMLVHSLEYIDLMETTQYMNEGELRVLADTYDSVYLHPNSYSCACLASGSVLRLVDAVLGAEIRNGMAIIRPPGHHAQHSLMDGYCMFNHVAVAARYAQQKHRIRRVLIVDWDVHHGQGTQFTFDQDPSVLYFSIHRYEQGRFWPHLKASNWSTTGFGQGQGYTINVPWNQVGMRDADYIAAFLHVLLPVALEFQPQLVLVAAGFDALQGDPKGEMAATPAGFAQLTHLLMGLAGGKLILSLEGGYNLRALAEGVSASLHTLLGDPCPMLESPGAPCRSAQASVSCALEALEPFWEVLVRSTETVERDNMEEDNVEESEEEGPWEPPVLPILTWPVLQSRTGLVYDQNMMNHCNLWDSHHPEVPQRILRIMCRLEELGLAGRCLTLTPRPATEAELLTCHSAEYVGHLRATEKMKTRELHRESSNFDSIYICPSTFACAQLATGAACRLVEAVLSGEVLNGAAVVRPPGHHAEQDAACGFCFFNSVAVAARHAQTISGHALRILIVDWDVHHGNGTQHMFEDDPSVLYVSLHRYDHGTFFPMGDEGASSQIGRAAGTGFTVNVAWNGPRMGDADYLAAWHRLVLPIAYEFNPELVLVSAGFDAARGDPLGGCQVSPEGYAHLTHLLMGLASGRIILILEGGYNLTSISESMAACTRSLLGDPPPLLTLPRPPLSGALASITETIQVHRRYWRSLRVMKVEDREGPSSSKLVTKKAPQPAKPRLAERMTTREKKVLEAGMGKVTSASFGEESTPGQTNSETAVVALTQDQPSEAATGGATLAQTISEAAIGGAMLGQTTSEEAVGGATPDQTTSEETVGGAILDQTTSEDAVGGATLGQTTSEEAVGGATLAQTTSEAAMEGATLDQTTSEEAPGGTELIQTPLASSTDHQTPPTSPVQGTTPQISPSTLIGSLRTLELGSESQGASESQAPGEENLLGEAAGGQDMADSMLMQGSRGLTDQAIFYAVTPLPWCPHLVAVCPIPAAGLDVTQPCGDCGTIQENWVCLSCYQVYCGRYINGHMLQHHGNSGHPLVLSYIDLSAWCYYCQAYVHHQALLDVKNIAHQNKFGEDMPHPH

[7] = system: acetylated histone 3 at Lys9 (AcH3K9); assay: HDAC activity in wild type primary neurons (Western blot AcH3K9); format: cell-based, mouse; settings: Mus musculus, Neuron, 0.5 h, 30 min, EC50 = 50% increase in AcH3K9 over basal, read-out: AcH3 (EC50)
[8] = system: pCREB; assay: PDE activity in wild type primary neurons (Western blot pCREB); format: cell-based; settings: Mus musculus, Neuron, 0.5 h, 30 min, EC50 = 50% increase in pCREB over basal
[9] = system: AcH3; assay: In-vivo activity, hippocampus of wild type mice: AcH3; set-up: species or system mouse; settings: i.p. 40 mg/kg, hippocampus one hour later
Method: (§1) To determine the ability of the compounds to inhibit HDAC and PDE in the brain, the compound was administered to wild type mice by i.p. at a dose of 40 mg/kg (n=3). Another group of animals received the vehicle (1/1/8, v:v:v, DMSO/Tween 20/saline). One hour later, mice were sacrificed by cervical dislocation and their hippocampus was quickly dissected from the brains.
(§2) Total tissue homogenates were obtained by homogenizing the hippocampus in a cold lysis buffer with protease inhibitors (0.2 M NaCl, 0.1 M HEPES, 10% glycerol, 200 mM NaF, 2 mM Na4P2O7, 5 mM EDTA, 1 mM EGTA, 2 mM DTT, 0.5 mM PMSF, 1 mM Na3VO4 and Complete Protease Inhibitor Cocktail, Roche Diagnostics). The homogenate was then centrifuged at 14,000×g at 4° C. for 20 min and the supernatant aliquoted and stored at −80° C. Total protein concentrations were determined using the BioRad Bradford protein assay (BioRad Laboratories). Protein samples were analyzed as described in the “in vitro” section.

[10] = system: pCREB; assay: In-vivo activity, hippocampus of wild type mice: pCREB; set-up: species or system mouse; settings: i.p. 40 mg/kg, hippocampus one hour later
Method: as §1, §2

T4 sequence (O15379 whole entry): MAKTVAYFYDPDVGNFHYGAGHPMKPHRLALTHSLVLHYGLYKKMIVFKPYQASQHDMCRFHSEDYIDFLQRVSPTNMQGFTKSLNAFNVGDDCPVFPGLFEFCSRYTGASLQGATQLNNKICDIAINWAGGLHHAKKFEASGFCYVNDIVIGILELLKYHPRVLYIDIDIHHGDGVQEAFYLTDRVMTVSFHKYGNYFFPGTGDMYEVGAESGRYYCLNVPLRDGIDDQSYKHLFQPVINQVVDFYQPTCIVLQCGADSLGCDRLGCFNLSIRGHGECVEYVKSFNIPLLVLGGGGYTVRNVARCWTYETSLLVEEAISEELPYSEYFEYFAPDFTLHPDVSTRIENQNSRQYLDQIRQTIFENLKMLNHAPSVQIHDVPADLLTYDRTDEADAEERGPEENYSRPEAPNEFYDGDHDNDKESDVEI
T4 sequence (Q9Y618 395-489 partner limits assumed): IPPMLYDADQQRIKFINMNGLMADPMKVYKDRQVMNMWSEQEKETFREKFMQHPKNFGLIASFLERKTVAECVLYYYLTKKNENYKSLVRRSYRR
T3 sequence (O76083 1-533 isoform O76083-2): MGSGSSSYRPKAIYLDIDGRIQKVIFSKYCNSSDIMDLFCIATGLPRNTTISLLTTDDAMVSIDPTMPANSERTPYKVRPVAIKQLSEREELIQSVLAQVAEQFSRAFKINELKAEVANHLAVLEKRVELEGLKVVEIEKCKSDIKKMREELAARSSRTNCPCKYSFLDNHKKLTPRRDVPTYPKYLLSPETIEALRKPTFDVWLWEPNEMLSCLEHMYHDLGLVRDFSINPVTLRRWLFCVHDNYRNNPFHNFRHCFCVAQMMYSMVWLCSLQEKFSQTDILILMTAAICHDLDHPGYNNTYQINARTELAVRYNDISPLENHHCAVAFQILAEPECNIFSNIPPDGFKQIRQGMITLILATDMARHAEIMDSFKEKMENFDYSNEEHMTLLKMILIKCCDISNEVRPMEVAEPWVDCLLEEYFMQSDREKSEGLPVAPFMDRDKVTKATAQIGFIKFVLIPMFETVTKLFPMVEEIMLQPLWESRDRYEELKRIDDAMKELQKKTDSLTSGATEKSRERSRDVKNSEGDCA
Sequence of HDAC1 (Q13547 whole entry): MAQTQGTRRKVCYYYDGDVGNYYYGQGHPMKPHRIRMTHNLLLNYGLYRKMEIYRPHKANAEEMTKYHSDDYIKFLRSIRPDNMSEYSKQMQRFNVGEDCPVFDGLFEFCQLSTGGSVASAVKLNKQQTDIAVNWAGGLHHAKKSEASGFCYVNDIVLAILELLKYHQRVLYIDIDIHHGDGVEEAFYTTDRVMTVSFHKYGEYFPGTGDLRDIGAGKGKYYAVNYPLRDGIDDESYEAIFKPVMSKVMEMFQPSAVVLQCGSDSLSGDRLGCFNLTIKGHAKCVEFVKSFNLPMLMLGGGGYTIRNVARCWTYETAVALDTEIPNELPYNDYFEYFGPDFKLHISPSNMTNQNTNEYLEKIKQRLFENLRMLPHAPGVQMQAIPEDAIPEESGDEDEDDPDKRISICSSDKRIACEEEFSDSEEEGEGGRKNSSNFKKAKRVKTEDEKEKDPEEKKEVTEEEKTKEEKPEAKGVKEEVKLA
T1 sequence (Q92769 whole entry): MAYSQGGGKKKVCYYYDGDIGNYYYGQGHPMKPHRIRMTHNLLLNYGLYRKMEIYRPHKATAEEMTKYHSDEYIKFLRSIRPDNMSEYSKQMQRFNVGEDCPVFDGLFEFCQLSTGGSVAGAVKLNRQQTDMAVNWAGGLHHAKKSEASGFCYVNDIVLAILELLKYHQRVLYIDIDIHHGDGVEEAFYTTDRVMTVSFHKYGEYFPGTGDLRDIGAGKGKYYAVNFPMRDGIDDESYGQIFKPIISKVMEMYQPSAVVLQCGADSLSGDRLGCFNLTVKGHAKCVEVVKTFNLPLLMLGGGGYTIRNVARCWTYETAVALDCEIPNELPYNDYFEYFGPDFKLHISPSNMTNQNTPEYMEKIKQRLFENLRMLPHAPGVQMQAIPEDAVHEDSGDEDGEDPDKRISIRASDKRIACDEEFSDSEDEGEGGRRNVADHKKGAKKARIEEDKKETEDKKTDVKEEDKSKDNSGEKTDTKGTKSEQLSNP

Structure (SMILES)	IC50 [1]	IC50 [2]	IC50 [3]	IC50 [4]	IC50 [5]	IC50 [6]	EC50 [7]	EC50 [8]	AcH3, increment in biological response vs basal [9]	pCREB, increment in biological response vs basal [10]
CCCc1nn(C)c2c(=O)[nH]c(-c3cc(Cc4ccc(C(=O)NO)o4)ccc3OCC)nc12 [Example 1-17]	> 10000 nM	1000 to 10000 nM	< 10 nM		> 10000 nM	10 to 1000 nM				
CCCc1nn(C)c2c(=O)[nH]c(-c3cc(Cc4ccc(CC(=O)NO)cc4)ccc3OCC)nc12 [Example 1-18]	> 10000 nM	> 10000 nM	10 to 1000 nM		> 10000 nM	10 to 1000 nM				
CCCc1nn(C)c2c(=O)[nH]c(-c3cc(CC4CCC(C(=O)NO)CC4)ccc3OCC)nc12 (stereo not shown) [Example 1-29, 4-[[4-ethoxy-3-(1-methyl-7-oxo-3-propyl-6H-pyrazolo[4,3-d]pyrimidin-5-yl)phenyl]methyl]cyclohexanecarbohydroxamic acid]	> 10000 nM	10 to 1000 nM	10 to 1000 nM			10 to 1000 nM	1000 to 10000 nM	1000 to 10000 nM		
CCCc1nn(C)c2c(=O)[nH]c(-c3cc(-c4ccc(C(=O)NO)cc4)ccc3OCC)nc12 [Example 1-30]	1000 to 10000 nM	10 to 1000 nM	< 10 nM			10 to 1000 nM	10 to 1000 nM	10 to 1000 nM		
CCCc1nc(C)c2c(=O)[nH]c(-c3cc(CC4CC(C(=O)NO)C4)ccc3OCC)nn12 (stereo not shown) [Example 2-07, 3-[[4-ethoxy-3-(5-methyl-4-oxo-7-propyl-3H-imidazo[5,1-f][1,2,4]triazin-2-yl)phenyl]methyl]cyclobutanecarbohydroxamic acid]	1000 to 10000 nM	10 to 1000 nM	< 10 nM			10 to 1000 nM	10 to 1000 nM	10 to 1000 nM		
CC(c1nc2c(cnn2C2CCOCC2)c(=O)[nH]1)N1CC(Cc2ccc(C(=O)NO)s2)C1 (stereo not shown) [Example 3-16]	1000 to 10000 nM	1000 to 10000 nM		10 to 1000 nM		1000 to 10000 nM				
O=C(NO)c1cnc(N2CCC(CN3CC(=O)N4[C@H](c5ccc6c(c5)OCO6)c5[nH]c6ccccc6c5C[C@@H]4C3=O)CC2)nc1 [Example 4-05]	10 to 1000 nM	10 to 1000 nM	10 to 1000 nM	> 10000 nM		10 to 1000 nM				
O=C(CCCCCCC(=O)Nc1ccccc1)NO [Vorinostat, reference compound]			> 10000 nM	> 10000 nM					+++ (basal×2≦(+++)<basal×3)	N.E. (N.E. means No Effect)

Now from value to compound, other results behind:

IC50 [1]	IC50 [2]	IC50 [3]	IC50 [4]	IC50 [5]	IC50 [6]	EC50 [7]	EC50 [8]	Structure (SMILES)	AcH3, increment in biological response vs basal [9]	pCREB, increment in biological response vs basal [10]
10 to 1000 nM	10 to 1000 nM	< 10 nM	1000 to 10000 nM	10 to 1000 nM	10 to 1000 nM			CCCc1nn(C)c2c(=O)[nH]c(-c3cc(S(=O)(=O)NC4CCN(c5ncc(C(=O)NO)cn5)CC4)ccc3OCC)nc12 [Example 1-07]		
10 to 1000 nM	10 to 1000 nM	< 10 nM		10 to 1000 nM	10 to 1000 nM			CCCc1nn(C)c2c(=O)[nH]c(-c3cc(NC4CCN(c5ncc(C(=O)NO)cn5)CC4)ccc3OCC)nc12 [Example 1-22, 2-[4-[4-ethoxy-3-(1-methyl-7-oxo-3-propyl-6H-pyrazolo[4,3-d]pyrimidin-5-yl)anilino]-1-piperidyl]pyrimidine-5-carbohydroxamic acid]		
10 to 1000 nM	10 to 1000 nM	< 10 nM		10 to 1000 nM	1000 to 10000 nM			CCCc1nn(C)c2c(=O)[nH]c(-c3cc(CC4CCN(c5ncc(C(=O)NO)cn5)CC4)ccc3OCC)nc12 [Example 1-24, 2-[4-[[4-ethoxy-3-(1-methyl-7-oxo-3-propyl-6H-pyrazolo[4,3-d]pyrimidin-5-yl)phenyl]methyl]-1-piperidyl]pyrimidine-5-carbohydroxamic acid]		
10 to 1000 nM	10 to 1000 nM	< 10 nM		10 to 1000 nM	10 to 1000 nM	10 to 1000 nM	1000 to 10000 nM	CCCc1nn(C)c2c(=O)[nH]c(-c3cc(N(C)C4CCN(c5ncc(C(=O)NO)cn5)CC4)ccc3OCC)nc12 [Example 1-25]		
> 10000 nM	1000 to 10000 nM	10 to 1000 nM			10 to 1000 nM	10 to 1000 nM	1000 to 10000 nM	CCCc1nn(C)c2c(=O)[nH]c(-c3cc(C4CCC(C(=O)NO)CC4)ccc3OCC)nc12 (stereo not shown) [Example 1-40, 4-[4-ethoxy-3-(1-methyl-7-oxo-3-propyl-6H-pyrazolo[4,3-d]pyrimidin-5-yl)phenyl]cyclohexanecarbohydroxamic acid]		
10 to 1000 nM	10 to 1000 nM	< 10 nM			10 to 1000 nM	10 to 1000 nM	10 to 1000 nM	CCCc1nn(C)c2c(=O)[nH]c(-c3cc(CN4CCN(c5ncc(C(=O)NO)cn5)CC4)ccc3OCC)nc12 [Example 1-48, 2-[4-[[4-ethoxy-3-(1-methyl-7-oxo-3-propyl-6H-pyrazolo[4,3-d]pyrimidin-5-yl)phenyl]methyl]piperazin-1-yl]pyrimidine-5-carbohydroxamic acid]		
